Assay results from the NIST ThermoML archive (doi:10.1021/acs.jced.8b00011).
Several values for one entry are separate records, joined by “and”; a condition that tells them apart may be missing. Equal values may be shown once.

Conditions: Liquid; for mass density: Vibrating tube method; for electrical conductivity: electrochemical impedance spectroscopy

CCCCC[P+](CC)(CC)CC.O=S(=O)([N-]S(=O)(=O)C(F)(F)F)C(F)(F)F
Conditions	electrical conductivity [S/m]	viscosity
273.15 K, 100 kPa, Concentric cylinders viscometry	–	391.1 mPa·s
273.15 K, 100 kPa, Falling or rolling sphere viscometry	–	396.2 mPa·s and 396 mPa·s
278.15 K, 100 kPa, Concentric cylinders viscometry	–	275.6 mPa·s
278.15 K, 100 kPa, Falling or rolling sphere viscometry	–	278.3 mPa·s and 278.2 mPa·s
283.14 K, 149300 kPa, Frequency=0 MHz	0.0123	–
283.14 K, 174300 kPa, Frequency=0 MHz	0.00927	–
283.15 K, 100 kPa, Concentric cylinders viscometry	–	199.6 mPa·s
283.15 K, 100 kPa, Falling or rolling sphere viscometry	–	201.3 mPa·s and 200.4 mPa·s
283.15 K, 100 kPa, Frequency=0 MHz	0.076	–
283.15 K, 1200 kPa, Frequency=0 MHz	0.0749	–
283.15 K, 3100 kPa, Frequency=0 MHz	0.0728	–
283.15 K, 5100 kPa, Frequency=0 MHz	0.0709	–
283.15 K, 10600 kPa, Falling or rolling sphere viscometry	–	228.6 mPa·s
283.15 K, 15400 kPa, Frequency=0 MHz	0.0618	–
283.15 K, 20500 kPa, Frequency=0 MHz	0.0578	–
283.15 K, 20600 kPa, Falling or rolling sphere viscometry	–	263 mPa·s
283.15 K, 25600 kPa, Frequency=0 MHz	0.054	–
283.15 K, 30300 kPa, Falling or rolling sphere viscometry	–	302.4 mPa·s
283.15 K, 30600 kPa, Frequency=0 MHz	0.0507	–
283.15 K, 40800 kPa, Falling or rolling sphere viscometry	–	352.7 mPa·s
283.15 K, 42000 kPa, Frequency=0 MHz	0.0437	–
283.15 K, 50300 kPa, Frequency=0 MHz	0.0394	–
283.15 K, 50700 kPa, Falling or rolling sphere viscometry	–	398.9 mPa·s
283.15 K, 60900 kPa, Falling or rolling sphere viscometry	–	459.1 mPa·s
283.15 K, 71400 kPa, Falling or rolling sphere viscometry	–	527.1 mPa·s
283.15 K, 74900 kPa, Frequency=0 MHz	0.0294	–
283.15 K, 80400 kPa, Falling or rolling sphere viscometry	–	599.8 mPa·s
283.15 K, 88200 kPa, Falling or rolling sphere viscometry	–	667.7 mPa·s
283.15 K, 94700 kPa, Falling or rolling sphere viscometry	–	740.8 mPa·s
283.15 K, 99800 kPa, Frequency=0 MHz	0.0219	–
283.15 K, 126100 kPa, Frequency=0 MHz	0.016	–
283.16 K, 2100 kPa, Frequency=0 MHz	0.0741	–
283.16 K, 10300 kPa, Frequency=0 MHz	0.0661	–
283.16 K, 199900 kPa, Frequency=0 MHz	0.00703	–
288.15 K, 100 kPa, Concentric cylinders viscometry	–	148 mPa·s
293.15 K, 100 kPa, Concentric cylinders viscometry	–	111.8 mPa·s and 112.2 mPa·s and 112 mPa·s
293.15 K, 100 kPa, Falling or rolling sphere viscometry	–	112.7 mPa·s
298.14 K, 176500 kPa, Frequency=0 MHz	0.0255	–
298.15 K, 100 kPa, Concentric cylinders viscometry	–	86.33 mPa·s
298.15 K, 100 kPa, Falling or rolling sphere viscometry	–	87.05 mPa·s and 87.04 mPa·s and 87.45 mPa·s
298.15 K, 100 kPa, Frequency=0 MHz	0.165	–
298.15 K, 600 kPa, Falling or rolling sphere viscometry	–	86.57 mPa·s
298.15 K, 3400 kPa, Frequency=0 MHz	0.159	–
298.15 K, 5100 kPa, Frequency=0 MHz	0.155	–
298.15 K, 9800 kPa, Frequency=0 MHz	0.146	–
298.15 K, 10500 kPa, Falling or rolling sphere viscometry	–	99.67 mPa·s
298.15 K, 15000 kPa, Frequency=0 MHz	0.138	–
298.15 K, 20500 kPa, Falling or rolling sphere viscometry	–	114.4 mPa·s
298.15 K, 20900 kPa, Frequency=0 MHz	0.129	–
298.15 K, 25800 kPa, Frequency=0 MHz	0.122	–
298.15 K, 30600 kPa, Falling or rolling sphere viscometry	–	130.4 mPa·s
298.15 K, 31200 kPa, Frequency=0 MHz	0.114	–
298.15 K, 40500 kPa, Falling or rolling sphere viscometry	–	148 mPa·s
298.15 K, 41000 kPa, Frequency=0 MHz	0.102	–
298.15 K, 50500 kPa, Falling or rolling sphere viscometry	–	167.4 mPa·s
298.15 K, 51100 kPa, Frequency=0 MHz	0.0914	–
298.15 K, 56700 kPa, Frequency=0 MHz	0.0859	–

Conditions	electrical conductivity	mass density
273.15 K, 100 kPa	–	1323.74 kg/m3 and 1324 kg/m3 and 1323.6 kg/m3
273.15 K, 101.33 kPa	0.0399 S/m and 0.04 S/m	–
278.15 K, 100 kPa	–	1319.92 kg/m3 and 1319.6 kg/m3 and 1319.31 kg/m3
278.15 K, 101.33 kPa	0.0556 S/m and 0.0557 S/m	–
283.15 K, 100 kPa	–	1315.3 kg/m3 [middle of 4 runs]
283.15 K, 101.33 kPa	0.0756 S/m and 0.076 S/m and 0.0755 S/m	–
288.15 K, 100 kPa	–	1311.35 kg/m3 and 1311 kg/m3 and 1310.72 kg/m3
288.16 K, 101.33 kPa	0.1 S/m	–
293.15 K, 100 kPa	–	1306.8 kg/m3 [middle of 4 runs]
293.15 K, 101.33 kPa	0.13 S/m	–
298.15 K, 100 kPa	–	1302.45 kg/m3 [middle of 6 runs]
298.15 K, 101.33 kPa	0.166 S/m and 0.165 S/m	–
298.15 K, 1000 kPa	–	1302.82 kg/m3
298.15 K, 5000 kPa	–	1305.75 kg/m3
298.15 K, 10000 kPa	–	1309.28 kg/m3
298.15 K, 15000 kPa	–	1312.76 kg/m3
298.15 K, 20000 kPa	–	1316.13 kg/m3
298.15 K, 25000 kPa	–	1319.42 kg/m3
298.15 K, 30000 kPa	–	1322.62 kg/m3
298.15 K, 35000 kPa	–	1325.82 kg/m3
298.15 K, 40000 kPa	–	1328.9 kg/m3
298.15 K, 45000 kPa	–	1331.96 kg/m3
298.15 K, 50010 kPa	–	1334.83 kg/m3
